Structures can show the parent of a compound that is named as a salt.
Columns and labels:
[1] = test system: Phosphorylated Ribosomal Protein S6 (RPS6) in THP-1 cells; experiment: THP-1 RPS6 ELISA assay; format: cell-based, Human; conditions: Homo sapiens, THP-1, serum starved THP-1 cells, 2 hours compound, 10 nM MCP-1 for 15 minutes, Phospho-RPS6 ELISA; read-out: PI3Kγ_THP1_RPS6_ELISA IC50
Method: Example A. THP-1 RPS6 ELISA Assay
To measure the Phosphorylated Ribosomal Protein S6 (RPS6) in cell lysates, THP-1 cells (Human Acute Monocytic Leukemia) are purchased from ATCC (Manassas, Va.) and maintained in RPMI with 10% FBS (Gibco/Life Technologies, Carlsbad, Calif.). For the assay, THP-1 cells are serum starved overnight in RPMI, then plated in RPMI (2×10^5 cells/well in 90 μL) into 96-well flat-bottom tissue culture treated plates (Corning, Corning, N.Y.), in the presence or absence of a concentration range of test compounds. Covered plates are incubated for 2 hours at 37° C., 5% CO2 then treated with or without 10 nM MCP-1 (MYBioSource, San Diego, Calif.) for 15 minutes at 37° C., 5% CO2. Plates are centrifuged at 1600 RPM and supernatants are removed. Cells are lysed in Lysis Buffer (Cell Signaling, Danvers, Mass.) with Protease Inhibitor (Calbiochem/EMD, Germany), PMSF (Sigma, St Louis Mo.), HALTS (Thermo Fisher, Rockford, Ill.) for 30 min on wet ice. Cell lysates are frozen at −80° C. before testing. The lysates are tested in the Human/Mouse/Rat Phospho-RPS6 ELISA (R&D Systems, Inc. Minn, Minn.). The plate is measured using a microplate reader (SpectraMax M5—Molecular Devices, LLC Sunnyvale, Calif.) set to 450 nm with a wavelength correction of 540. IC50 determination is performed by fitting the curve of inhibitor percent inhibition versus the log of the inhibitor concentration using the GraphPad Prism 5.0 software.

PI3Kγ (p110γ) = PI3Kγ (p110γ) (Homo sapiens (Human), UniProt P48736); experiment: PI3K-γ scintillation proximity assay; format: biochemical; conditions: recombinant human PI3Kγ 13 nM, 20 μM PIP2, 2 μM ATP, 120 min, room temperature
Description: Example B. PI3K-γ Scintillation Proximity Assay Materials: [γ-^33P]ATP (10 mCi/mL) and Wheat Germ Agglutinin (WGA) YSi SPA Scintillation Beads was purchased from Perkin Elmer (Waltham, Mass.). Lipid kinase substrate, D-myo-Phosphatidylinositol 4,5-bisphosphate (PtdIns(4,5)P2)D (+)-sn-1,2-di-O-octanoylglyceryl, 3-O-phospho linked (PIP2), CAS 204858-53-7, was purchased from Echelon Biosciences (Salt Lake City, Utah). PI3Kγ (p110γ) Recombinant Human Protein was purchased from Life technology (Grand Island, N.Y.). ATP, MgCl2, DTT, EDTA, MOPS and CHAPS were purchased from Sigma Aldrich (St. Louis, Mo.). The kinase reaction was conducted in polystyrene 384-well Greiner Bio-one white plate from Thermo Fisher Scientific in a final volume of 25 μL. Inhibitors were first diluted serially in DMSO and added to the plate wells before the addition of other reaction components. The final concentration of DMSO in the assay was 2%. The PI3Kγ assay was carried out at room temperature in 20 mM MOPS, pH 6.7, 10 mM MgCl2, 5 mM DTT and CHAPS 0.03%. Reactions were initiated by the addition of ATP, the final reaction mixture consisted of 20 μM PIP2, 2 μM ATP, 0.5 μCi [γ-^33P] ATP, 13 nM PI3Kγ. Reactions were incubated for 120 min and terminated by the addition of 40 μL SPA beads suspended in quench buffer: 163 mM potassium phosphate pH 7.8, 20% glycerol, 25 mM EDTA. The final concentration of SPA beads is 1.0 mg/mL. After the plate sealing, plates were shaken overnight at room temperature and centrifuged at 1500 rpm for 10 min, the radioactivity of the product was determined by scintillation counting on Topcount (Perkin-Elmer). IC50 determination was performed by fitting the curve of percent of the solvent control activity versus the log of the inhibitor concentration using the GraphPad Prism 6.0 software.

PI3Kδ (p110δ/p85α) = PI3Kδ (p110δ/p85α) (Homo sapiens (Human), UniProt O00329); experiment: PI3Kδ scintillation proximity assay; format: biochemical; conditions: recombinant human PI3Kδ 3.4 nM, 20 μM PIP2, 2 μM ATP, 120 min, room temperature
Description: Example C. PI3Kδ Scintillation Proximity Assay Materials: [γ-^33P]ATP (10 mCi/mL) and Wheat Germ Agglutinin (WGA) YSi SPA Scintillation Beads was purchased from Perkin Elmer (Waltham, Mass.). Lipid kinase substrate, D-myo-Phosphatidylinositol 4,5-bisphosphate (PtdIns(4,5)P2)D (+)-sn-1,2-di-O-octanoylglyceryl, 3-O-phospho linked (PIP2), CAS 204858-53-7, was purchased from Echelon Biosciences (Salt Lake City, Utah). PI3Kδ (p110δ/p85α) Recombinant Human Protein was purchased from Eurofins (St Charles, Mo.). ATP, MgCl2, DTT, EDTA, MOPS and CHAPS were purchased from Sigma Aldrich (St. Louis, Mo.). The kinase reaction was conducted in polystyrene 384-well Greiner Bio-one white plate from Thermo Fisher Scientific in a final volume of 25 μL. Inhibitors were first diluted serially in DMSO and added to the plate wells before the addition of other reaction components. The final concentration of DMSO in the assay was 2%. The PI3Kδ assay was carried out at room temperature in 20 mM MOPS, pH 6.7, 10 mM MgCl2, 5 mM DTT and CHAPS 0.03%. Reactions were initiated by the addition of ATP, the final reaction mixture consisted of 20 μM PIP2, 2 μM ATP, 0.5 μCi [γ-^33P] ATP, 3.4 nM PI3Kδ. Reactions were incubated for 120 min and terminated by the addition of 40 μL SPA beads suspended in quench buffer: 163 mM potassium phosphate pH 7.8, 20% glycerol, 25 mM EDTA. The final concentration of SPA beads is 1.0 mg/mL. After the plate sealing, plates were shaken overnight at room temperature and centrifuged at 1500 rpm for 10 min, the radioactivity of the product was determined by scintillation counting on Topcount (PerkinElmer). IC50 determination was performed by fitting the curve of percent of the solvent control activity versus the log of the inhibitor concentration using the GraphPad Prism 6.0 software.

Sequence of PI3Kγ (p110γ) (P48736 whole entry): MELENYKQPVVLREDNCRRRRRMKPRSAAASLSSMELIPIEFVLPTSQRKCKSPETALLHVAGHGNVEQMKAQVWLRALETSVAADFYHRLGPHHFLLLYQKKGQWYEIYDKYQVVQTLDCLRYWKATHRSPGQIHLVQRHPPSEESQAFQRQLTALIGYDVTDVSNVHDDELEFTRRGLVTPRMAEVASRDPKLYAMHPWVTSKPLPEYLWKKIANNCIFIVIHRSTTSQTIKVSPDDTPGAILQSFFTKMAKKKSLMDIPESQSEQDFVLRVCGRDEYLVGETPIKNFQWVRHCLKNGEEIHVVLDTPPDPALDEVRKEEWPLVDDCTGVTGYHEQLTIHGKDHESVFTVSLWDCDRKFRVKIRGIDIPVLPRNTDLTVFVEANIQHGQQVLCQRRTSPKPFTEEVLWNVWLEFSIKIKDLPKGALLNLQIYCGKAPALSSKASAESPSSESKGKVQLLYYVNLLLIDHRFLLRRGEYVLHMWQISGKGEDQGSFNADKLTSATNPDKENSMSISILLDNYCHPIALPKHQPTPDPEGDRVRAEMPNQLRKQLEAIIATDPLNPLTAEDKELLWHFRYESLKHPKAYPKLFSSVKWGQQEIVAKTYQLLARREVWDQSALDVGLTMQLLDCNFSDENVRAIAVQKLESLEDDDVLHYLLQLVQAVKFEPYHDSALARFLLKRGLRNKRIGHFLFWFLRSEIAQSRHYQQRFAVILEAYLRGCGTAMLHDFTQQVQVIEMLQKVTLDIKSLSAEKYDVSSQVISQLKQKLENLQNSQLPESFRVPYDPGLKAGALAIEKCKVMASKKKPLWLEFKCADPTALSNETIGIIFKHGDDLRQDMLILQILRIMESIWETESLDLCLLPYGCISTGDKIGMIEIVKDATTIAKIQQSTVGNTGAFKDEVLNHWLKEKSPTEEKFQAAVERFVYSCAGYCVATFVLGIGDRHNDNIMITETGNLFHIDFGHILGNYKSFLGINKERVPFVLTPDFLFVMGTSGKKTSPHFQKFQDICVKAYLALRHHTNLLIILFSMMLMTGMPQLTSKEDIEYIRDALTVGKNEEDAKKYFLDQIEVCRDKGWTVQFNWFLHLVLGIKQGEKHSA
Sequence of PI3Kδ (p110δ/p85α) (O00329 whole entry): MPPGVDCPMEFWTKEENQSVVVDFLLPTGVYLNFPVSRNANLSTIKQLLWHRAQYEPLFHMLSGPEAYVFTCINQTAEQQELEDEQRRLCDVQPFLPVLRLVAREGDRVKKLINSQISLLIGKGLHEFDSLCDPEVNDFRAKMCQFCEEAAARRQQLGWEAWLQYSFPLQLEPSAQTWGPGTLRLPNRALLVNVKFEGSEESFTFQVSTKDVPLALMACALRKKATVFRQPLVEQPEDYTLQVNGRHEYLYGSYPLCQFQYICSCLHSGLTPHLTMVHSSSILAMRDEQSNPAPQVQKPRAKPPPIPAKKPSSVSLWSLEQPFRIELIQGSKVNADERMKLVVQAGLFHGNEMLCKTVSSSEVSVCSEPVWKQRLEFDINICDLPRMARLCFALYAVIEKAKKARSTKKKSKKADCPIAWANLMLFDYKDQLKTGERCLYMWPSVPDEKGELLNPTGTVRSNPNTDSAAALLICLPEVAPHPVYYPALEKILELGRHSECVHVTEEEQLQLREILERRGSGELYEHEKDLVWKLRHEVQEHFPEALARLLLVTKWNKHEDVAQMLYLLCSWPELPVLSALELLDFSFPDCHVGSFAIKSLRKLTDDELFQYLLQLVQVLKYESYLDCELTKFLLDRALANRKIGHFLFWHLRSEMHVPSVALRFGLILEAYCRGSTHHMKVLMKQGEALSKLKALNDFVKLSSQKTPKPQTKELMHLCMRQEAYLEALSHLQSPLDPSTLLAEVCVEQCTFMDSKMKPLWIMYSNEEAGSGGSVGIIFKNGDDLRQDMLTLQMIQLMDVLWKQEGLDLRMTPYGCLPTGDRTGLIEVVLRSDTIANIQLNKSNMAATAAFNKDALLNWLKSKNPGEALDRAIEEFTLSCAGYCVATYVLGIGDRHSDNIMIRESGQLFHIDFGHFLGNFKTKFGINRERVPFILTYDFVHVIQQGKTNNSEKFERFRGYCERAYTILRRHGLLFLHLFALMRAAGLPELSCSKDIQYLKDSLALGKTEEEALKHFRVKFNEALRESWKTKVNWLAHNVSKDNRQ
Sequence of PI3Kδ (p110δ/p85α) (P27986 whole entry partner): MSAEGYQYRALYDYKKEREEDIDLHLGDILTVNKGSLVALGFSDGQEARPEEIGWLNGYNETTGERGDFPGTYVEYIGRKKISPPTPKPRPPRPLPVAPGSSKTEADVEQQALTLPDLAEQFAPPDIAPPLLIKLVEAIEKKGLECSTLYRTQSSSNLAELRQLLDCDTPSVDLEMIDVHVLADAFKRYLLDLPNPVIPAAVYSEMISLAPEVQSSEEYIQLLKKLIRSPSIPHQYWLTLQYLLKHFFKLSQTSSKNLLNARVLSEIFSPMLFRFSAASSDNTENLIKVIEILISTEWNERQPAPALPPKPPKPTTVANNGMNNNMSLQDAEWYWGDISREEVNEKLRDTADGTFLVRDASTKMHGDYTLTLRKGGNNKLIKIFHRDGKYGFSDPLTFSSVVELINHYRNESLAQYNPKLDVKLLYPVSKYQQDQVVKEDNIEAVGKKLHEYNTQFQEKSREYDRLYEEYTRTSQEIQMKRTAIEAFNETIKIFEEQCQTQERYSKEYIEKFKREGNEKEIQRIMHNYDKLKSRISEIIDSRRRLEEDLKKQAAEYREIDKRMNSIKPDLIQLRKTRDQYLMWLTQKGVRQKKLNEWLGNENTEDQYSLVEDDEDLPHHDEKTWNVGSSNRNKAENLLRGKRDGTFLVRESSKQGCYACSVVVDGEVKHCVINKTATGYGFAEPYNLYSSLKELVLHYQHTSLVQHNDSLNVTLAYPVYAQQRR

| IC50 [1] [nM] | IC50 (PI3Kγ (p110γ)) [nM] | IC50 (PI3Kδ (p110δ/p85α)) [nM] | Compound |
| --- | --- | --- | --- |
| 100 to 500 | < 100 | 100 to 500 | Cc1[nH]c(-c2cc(-c3cc4c(c(S(C)(=O)=O)c3)C(=O)N([C@@H](C)C3CC3)C4)ccn2)nc1C(=O)NC1CCC1 [Example 7k, (S)-N-Cyclobutyl-2-(4-(2-(1-cyclopropylethyl)-7-(methylsulfonyl)-1-oxoisoindolin-5-yl)pyridin-2-yl)-4-methyl-1H-imidazole-5-carboxamide, trifluoroacetate salt] |
| 500 to 1000 | < 100 | 500 to 2000 | Cc1[nH]c(-c2cc(-c3cc4c(c(S(C)(=O)=O)c3)C(=O)N([C@@H](C)C3CC3)C4)ccn2)nc1C(=O)NC1CN(C)C1 [Example 7m, (S)-2-(4-(2-(1-Cyclopropylethyl)-7-(methylsulfonyl)-1-oxoisoindolin-5-yl)pyridin-2-yl)-4-methyl-N-(1-methylazetidin-3-yl)-1H-imidazole-5-carboxamide, trifluoroacetate salt] |
| 100 to 500 | < 100 | 100 to 500 | Cc1[nH]c(-c2cc(-c3cc4c(c(S(C)(=O)=O)c3)C(=O)N([C@@H](C)C3CC3)C4)ccn2)nc1C(=O)N(C)C1CCOCC1 [Example 7o, (S)-2-(4-(2-(1-Cyclopropylethyl)-7-(methylsulfonyl)-1-oxoisoindolin-5-yl)pyridin-2-yl)-N,4-dimethyl-N-(tetrahydro-2H-pyran-4-yl)-1H-imidazole-5-carboxamide, trifluoroacetate salt] |
| 100 to 500 | < 100 | 500 to 2000 | Cc1[nH]c(-c2cc(-c3cc4c(c(S(C)(=O)=O)c3)C(=O)N([C@@H](C)C3CC3)C4)ccn2)nc1C(=O)N1CC2(COC2)C1 [Example 7p, (S)-2-(1-Cyclopropylethyl)-5-(2-(4-methyl-5-(2-oxa-6-azaspiro[3.3]heptane-6-carbonyl)-1H-imidazol-2-yl)pyridin-4-yl)-7-(methylsulfonyl)isoindolin-1-one, trifluoroacetate salt] |
| > 1000 | < 100 | 500 to 2000 | Cc1[nH]c(-c2cc(-c3cc4c(c(S(C)(=O)=O)c3)C(=O)N([C@@H](C)C3CC3)C4)ccn2)nc1C(N)=O [Example 7q, (S)-2-(4-(2-(1-Cyclopropylethyl)-7-(methylsulfonyl)-1-oxoisoindolin-5-yl)pyridin-2-yl)-4-methyl-1H-imidazole-5-carboxamide, trifluoroacetate salt] |
| 100 to 500 | < 100 | 500 to 2000 | CCNC(=O)c1nc(-c2cc(-c3cc4c(c(S(C)(=O)=O)c3)C(=O)N([C@@H](C)C3CC3)C4)ccn2)[nH]c1C [Example 7r, (S)-2-(4-(2-(1-Cyclopropylethyl)-7-(methylsulfonyl)-1-oxoisoindolin-5-yl)pyridin-2-yl)-N-ethyl-4-methyl-1H-imidazole-5-carboxamide, trifluoroacetate salt] |
| 500 to 1000 | < 100 | 500 to 2000 | CCN(C)C(=O)c1nc(-c2cc(-c3cc4c(c(S(C)(=O)=O)c3)C(=O)N([C@@H](C)C3CC3)C4)ccn2)[nH]c1C [Example 7s, (S)-2-(4-(2-(1-Cyclopropylethyl)-7-(methylsulfonyl)-1-oxoisoindolin-5-yl)pyridin-2-yl)-N-ethyl-N,4-dimethyl-1H-imidazole-5-carboxamide, trifluoroacetate salt] |
| 100 to 500 | < 100 | 500 to 2000 | Cc1[nH]c(-c2cc(-c3cc4c(c(S(C)(=O)=O)c3)C(=O)N([C@@H](C)C3CC3)C4)ccn2)nc1C(=O)N(C)C(C)C [Example 7t, (S)-2-(4-(2-(1-Cyclopropylethyl)-7-(methylsulfonyl)-1-oxoisoindolin-5-yl)pyridin-2-yl)-N-isopropyl-N,4-dimethyl-1H-imidazole-5-carboxamide, trifluoroacetate salt] |
| 100 to 500 | < 100 | 500 to 2000 | Cc1[nH]c(-c2cc(-c3cc4c(c(S(C)(=O)=O)c3)C(=O)N([C@@H](C)C3CC3)C4)ccn2)nc1C(=O)N(C)C1CCC1 [Example 7u, (S)-N-Cyclobutyl-2-(4-(2-(1-cyclopropylethyl)-7-(methylsulfonyl)-1-oxoisoindolin-5-yl)pyridin-2-yl)-N,4-dimethyl-1H-imidazole-5-carboxamide, trifluoroacetate salt] |
| > 1000 | 100 to 500 | > 2000 | C[C@@H](C1CC1)N1Cc2cc(-c3cnnc(-c4ccn[nH]4)c3)cc(S(C)(=O)=O)c2C1=O [Example 9, (S)-5-(6-(1H-Pyrazol-5-yl)pyridazin-4-yl)-2-(1-cyclopropylethyl)-7-(methylsulfonyl)isoindolin-1-one Trifluoroacetate Salt] |
| > 1000 | 100 to 500 | > 2000 | Cc1cc(-c2cc(-c3cc4c(c(S(C)(=O)=O)c3)C(=O)N([C@@H](C)C3CC3)C4)cnn2)[nH]n1 [Example 10, (S)-2-(1-Cyclopropylethyl)-5-(6-(3-methyl-1H-pyrazol-5-yl)pyridazin-4-yl)-7-(methylsulfonyl)isoindolin-1-one, trifluoroacetate salt] |
| > 1000 | < 100 | > 2000 | Cc1nnc(-c2cc(-c3cc4c(c(S(C)(=O)=O)c3)C(=O)N([C@@H](C)C3CC3)C4)ccn2)[nH]1 [Example 12, (S)-2-(1-Cyclopropylethyl)-5-(2-(5-methyl-4H-1,2,4-triazol-3-yl)pyridin-4-yl)-7-(methylsulfonyl)isoindolin-1-one] |
| > 1000 | < 100 | > 2000 | Cc1cc(-c2cc(-c3cc4c(c(S(C)(=O)=O)c3)C(=O)N([C@@H](C)C3CC3)C4)ccn2)[nH]n1 [Example 14, (S)-2-(1-Cyclopropylethyl)-5-(2-(3-methyl-1H-pyrazol-5-yl)pyridin-4-yl)-7-(methylsulfonyl)isoindolin-1-one, Trifluoroacetate Salt] |

Source: patent US11396502B2, “Substituted heterocyclic derivatives as PI3K inhibitors” (Incyte Corporation, priority 2018, dated 2022)
